According to paper PMC8453848, “Effect of GLPG1205, a GPR84 Modulator, on CYP2C9, CYP2C19, and CYP1A2 Enzymes: In Vitro and Phase 1 Studies” (Clinical Pharmacology in Drug Development, 2021):

Key:
[1] = Phase 1 drug-drug interaction study: safety and tolerability (adverse events)
Description: The safety assessment was based on adverse events (AEs), vital signs, 12‐lead electrocardiogram (ECG), physical examinations, and safety laboratory tests. AEs were monitored for the duration of the study. All safety assessments were undertaken at the screening visit, on days 13 and 14, and at the follow‐up visit. In addition, safety assessments were undertaken on day 1 (vital signs, 12‐lead ECG, and clinical laboratory tests) and day 7 (physical examination, vital signs, and clinical laboratory tests).
The safety population comprised all randomized subjects who received at least 1 dose of study drug.

CYP1A2 = test: in vitro; conditions: human
Experimental: (§1) GLPG1205 was incubated with monolayer cultures of fresh human hepatocytes from 3 individual donors for 24 hours (messenger ribonucleic acid [mRNA] analysis) or 48 hours (enzyme activity) at 6 different concentrations: 0.5, 1, 5, 10, 50, and 100 μM (0.19, 0.38, 1.89, 3.78, 18.9, and 37.8 μg/mL, respectively). All incubations contained 0.4% dimethylsulfoxide (DMSO). Incubation with 50 μM omeprazole containing 0.1% DMSO was used as a positive control. Incubations with 0.1% and 0.4% DMSO alone were used as negative controls.
(§2) Following a 24‐hour incubation, CYP1A2 mRNA was quantified using real‐time quantitative reverse transcription polymerase chain reaction.
(§3) A concentration‐dependent increase in mRNA of <100% was considered a negative finding when the increase in mRNA was less than 20% of the response of the positive control.
(§4) Incubation for CYP1A2 Induction Experiment The incubations for enzyme activity measurements were performed with cell monolayers in 96-well plates and the incubations for mRNA measurements were performed with cell monolayers in 24-well plates.^3
(§5) GLPG1205 was incubated with monolayer culture of human fresh hepatocytes from 3 individual donors for 24 or 48 hours, for messenger ribonucleic acid (mRNA) analysis and enzyme activity, respectively, at 6 different concentrations (n = 3): 0.1, 0.5, 1, 5, 10 and 50 µM (0.038, 0.19, 0.38, 1.89, 3.78 and 18.9 µg/mL, respectively). […]
(§6) mRNA Analysis At the end of the 24-hour incubation period, the incubation medium was removed and the cell monolayers were washed twice with 500 µL phosphate buffered saline. […] Total RNA and RNA quality were assessed by measuring 260/280 nm and 260/230 nm absorbance ratios. RNA concentrations were used to normalize the quantity of RNA used for the reverse transcriptase assay. […]
(§7) Quantitative real-time reverse transcription polymerase chain reaction (qRT-PCR) was performed using SYBRGreen® validated primers for CYP1A2.^3 The housekeeping gene glyceraldehyde 3-phosphate dehydrogenase (GAPDH) was analyzed in parallel as the control gene. […]
(§8) The fold induction (FI) was determined as: […]

CYP1A2 mRNA = test: in vitro; conditions: human, hepatocytes, 24 h
Experimental: as §1, §2, §3, §4, §5, §6, §7, §8

[2] = GLPG1205 100 mg once a day + CYP450 substrates, n = 14
[3] = GLPG1205 100 mg once a day alone, n = 14

O=c1nc(OC[C@@H]2COCCO2)cc2n1CCc1cc(C#CC3CC3)ccc1-2 [GLPG1205, 9‐cyclopropylethynyl‐2‐[(S)‐1‐(1,4)dioxan‐2‐ylmethoxy]‐6,7‐dihydropyrimido[6,1‐a]isoquinolin‐4‐one]
Any TEAE [1, 2]: 3 (21.4) n (%)
Gastrointestinal disorders [1, 2]: 0 n (%)
General disorders and general administration‐site conditions [1, 2]: 0 n (%)
Headache [1, 2]: 1 (7.1) n (%)
Influenza‐like illness [1, 2]: 0 n (%)
Musculoskeletal and connective tissue disorders [1, 2]: 1 (7.1) n (%)
Myalgia [1, 2]: 1 (7.1) n (%)
Nausea [1, 2]: 0 n (%)
Nervous system disorders [1, 2]: 1 (7.1) n (%)
Oropharyngeal pain [1, 2]: 1 (7.1) n (%)
Pain [1, 2]: 0 n (%)
Respiratory, thoracic, and mediastinal disorders [1, 2]: 1 (7.1) n (%)
Any TEAE [1, 3]: 9 (64.3) n (%)
Back pain [1, 3]: 0 n (%)
Disturbance in attention [1, 3]: 2 (14.3) n (%)
Eye disorders [1, 3]: 1 (7.1) n (%)
Fatigue [1, 3]: 1 (7.1) n (%)
Flatulence [1, 3]: 1 (7.1) n (%)
Flushing [1, 3]: 1 (7.1) n (%)
Gastroenteritis [1, 3]: 1 (7.1) n (%)
Gastrointestinal disorders [1, 3]: 1 (7.1) n (%)
General disorders and general administration‐site conditions [1, 3]: 1 (7.1) n (%)
Headache [1, 3]: 5 (35.7) n (%)
Hyperhidrosis [1, 3]: 0 n (%)
Infections and infestations [1, 3]: 1 (7.1) n (%)
Lacrimation increased [1, 3]: 1 (7.1) n (%)
Musculoskeletal and connective tissue disorders [1, 3]: 1 (7.1) n (%)
Myalgia [1, 3]: 1 (7.1) n (%)
Nasopharyngitis [1, 3]: 0 n (%)
Nervous system disorders [1, 3]: 8 (57.1) n (%)
Oropharyngeal pain [1, 3]: 1 (7.1) n (%)
Paresthesia [1, 3]: 1 (7.1) n (%)
Presyncope [1, 3]: 1 (7.1) n (%)
Rash [1, 3]: 0 n (%)
Respiratory, thoracic, and mediastinal disorders [1, 3]: 1 (7.1) n (%)
Skin and subcutaneous tissue disorders [1, 3]: 0 n (%)
Vascular disorders [1, 3]: 1 (7.1) n (%)
Vision blurred [1, 3]: 0 n (%)
moderate presyncope, subjects ([1]; GLPG1205 alone): 1 n
moderate oropharyngeal pain, subjects ([1]; GLPG1205 plus CYP450 substrates): 1 n
deaths or serious AEs ([1]; during the study): no deaths or serious AEs
laboratory safety tests, ECG, vital signs, physical examination ([1]; during the study): No clinically significant trends or abnormalities
fold induction at 24 h, 1 µM (CYP1A2; CYP1A2 mRNA, fold induction, mean (SD)): 6.12 ± 0.65
fold induction at 24 h, 1 µM (CYP1A2; maximum fold induction of CYP1A2 mRNA): 6
increase in CYP1A2 mRNA expression compared with the vehicle control (CYP1A2 mRNA): greater than 100%
